The values below come from patent publication US12435060B2, “Acylamino bridged heterocyclic compound, and composition and application thereof” (BEIJING SCITECH-MQ PHARMACEUTICALS LIMITED, priority 2019, dated 2025).

The assay deals with HT29 cells. Description: Inhibition of cell necrosis (CCK8 method), induced programmed necrosis of HT29 cells. The conditions noted are these: Homo sapiens, HT-29; rescue from necrosis induced by TNF-α 20 ng/mL, AT-406 1 μM, Z-VAD-FMK 20 μM; 16-20 hours; CCK-8, OD 450 nm. It is filed as cell-based. The protocol: Assay Example 2. Assay Method for Compounds Inhibiting Cell Necrosis (CCK8 Method)
In this assay example 2, under the condition of inducing programmed cell necrosis, different concentrations of the test compounds were added to test the IC50 of the rescue effect of the test compounds on the programmed necrosis.
• Compounds: Dissolved in DMSO to make a 10 mM solution; • TNF-α: The initial concentration was 100 μg/mL; • Z-VAD-FMK: Dissolved in DMSO to make a 10 mM solution; • AT-406: Dissolved in DMSO to make a 10 mM solution. I. Experimental Steps • 1) Compound dilution: All test compounds were dissolved in DMSO to prepare a 10 mM stock solution, and the first concentration gradient dilution of the test compounds was completed in DMSO. The gradient dilution factor was 4 times and 9 concentration gradients were made; A 40-fold overall dilution of all compounds was completed in the cell culture medium, and the resulting compound was 10× compound, which will be added to the wells of the 96-well plate containing cells, so that the final cell culture medium was 1× the designed final concentration. The general drug design is 9 concentration gradients, of which the highest final concentration is 25000 nM, the lowest concentration after 4-fold dilution of 9 concentrations is 0.38 nM, and the final concentration of DMSO in all wells is 0.25%. The compound dilution process is shown in FIG. 3. • 2) HT 29 cells in good growth condition were selected, trypsinized, the cells was collected by centrifugation, resuspended in McCOY's 5A complete medium (containing 10% FBS) and counted, and the number of cells and survival rate were recorded. • 3) Cells were inoculated to the 60 wells in the middle of the 96-well culture plate at a density of 12000 cells/80 μL/well, surrounding wells were filled with sterile water, and incubated overnight. • 4) 10 μL of the 10× compound diluted with the medium was added to the assay wells, 10 μL of McCOY's 5A complete medium containing 2.5% DMSO was added to the inducer-free wells and the control wells, mixed and shaked, and incubated for 30 minutes. • 5) Then 10 μL of inducer mixture (TNF-α, AT-406, Z-VAD-FMK with the final concentration of 20 ng/mL, 1 μM, 20 μM) was added into the assay wells and control wells. 10 μL McCOY's 5A complete medium was added to wells without inducer. Cells were cultured in an incubator with 5% CO2, at 37° C. • 6) After culturing for 16-20 hours, 10 μL of CCK-8 reagent was added to each well, and incubated for about 2 hours; • 7) The OD value was read at 450 nm on the multi-function plate reader. • 8) Data processing: Inhibition rate of necrosis (%)=100*(X−B)/(A−B) • A: The OD values of the wells without inducer (containing cells, CCK-8, without compound and inducer); • […]: OD values of assay wells (containing cells, CCK-8, compound, inducer); • B: OD values of control wells (containing cells, CCK-8, inducer, without compound). Then the value were imported into Graphpad Prism5 software for curve fitting and the IC50 values were calculated.
Regarding `COc1ccc(-c2ccnc(NC(=O)c3nnc(Cc4ccccc4)[nH]3)c2)c(C)c1` [Example 10, 5-benzyl-N-(4-(4-methoxy-2-methylphenyl)pyridin-2-yl)-4H-1,2,4-triazole-3-carboxamide], the 50% inhibitory concentration (IC50) was 1000 to 10000 nM.

As for `CC(C)n1nc(C(F)(F)F)cc1-c1ccnc(NC(=O)c2nnc(Cc3ccccc3)[nH]2)c1` [Example 32, 5-benzyl-N-(4-(1-isopropyl-3-(trifluoromethyl)-1H-pyrazol-5-yl)pyridin-2-yl)-4H-1,2,4-triazole-3-carboxamide], the IC50 is above 10000 nM.

`CC(C)(O)CCCOc1ccc(Cl)c(-c2ccnc(NC(=O)c3nnc(Cc4cc(F)c(F)c(F)c4)[nH]3)c2)c1` [Example 354, N-(4-(2-chloro-5-((4-hydroxy-4-methylpentyl)oxy)phenyl)pyridin-2-yl)-5-(3,4,5-trifluorobenzyl)-4H-1,2,4-triazole-3-carboxamide] showed an IC50 of 100 to 1000 nM.

For the compound `O=C(Nc1cc(-c2cc(OCC3CCOCC3)ccc2C(F)(F)F)ccn1)c1nnc(CC2CCCC2)[nH]1` [Example 303, 5-(cyclopentylmethyl)-N-(4-(5-((tetrahydro-2H-pyran-4-yl)methoxy)-2-(trifluoromethyl)phenyl)pyridin-2-yl)-4H-1,2,4-triazole-3-carboxamide], the half-inhibitory concentration (IC50) was at most 100 nM.

`Cc1cnc(NC(=O)c2nnc(CC3CCCCC3)[nH]2)cc1-c1cc(OCCCC(C)(C)O)ccc1Cl` [Example 414, N-(4-(2-chloro-5-((4-hydroxy-4-methylpentyl)oxy)phenyl)-5-methylpyridin-2-yl)-5-(cyclohexylmethyl)-4H-1,2,4-triazole-3-carboxamide] registered a 50% inhibitory concentration (IC50) of 100 to 1000 nM.

In turn, `O=C(Nc1cc(-c2ccccc2C2CC2)ccn1)c1nnc(Cc2ccccc2)[nH]1` [Example 8, 5-benzyl-N-(4-(2-cyclopropylphenyl)pyridin-2-yl)-4H-1,2,4-triazole-3-carboxamide] displayed an IC50 of 1000 to 10000 nM.

The compound `COc1ccc(C(C)C)cc1-c1ccnc(NC(=O)c2nnc(Cc3ccccc3)[nH]2)c1` [Example 17, 5-benzyl-N-(4-(5-isopropyl-2-methoxyphenyl)pyridin-2-yl)-4H-1,2,4-triazole-3-carboxamide] gave a 50% inhibitory concentration (IC50) above 10000 nM.

As to `CC(C)Oc1ncccc1-c1ccnc(NC(=O)c2nnc(Cc3ccccc3)[nH]2)c1` [Example 23, 5-benzyl-N-(2-isopropyloxy-[3,4′-bipyridin]-2′-yl)-4H-1,2,4-triazole-3-carboxamide], the IC50 was above 10000 nM.

Regarding `Cc1ccc(OCCCC(C)(C)O)cc1-c1ccnc(NC(=O)c2nnc(Cc3ccccc3F)[nH]2)c1` [Example 183, 5-(2-fluorobenzyl)-N-(4-(5-((4-hydroxy-4-methylpentyl)oxy)-2-methylphenyl)pyridin-2-yl)-4H-1,2,4-triazole-3-carboxamide], the IC50 is at most 100 nM.

For the compound `Cc1ccc(OCCCC(C)(C)O)cc1-c1ccnc(NC(=O)c2nnc(CC3CCCC3)o2)c1` [Example 174, 5-(cyclopentylmethyl)-N-(4-(5-((4-hydroxy-4-methylpentyl)oxy)-2-methylphenyl)pyridin-2-yl)-4H-1,3,4-oxadiazole-2-carboxamide], the IC50 was 100 to 1000 nM.

In turn, `Cc1ccc(OCCCC(C)(C)O)cc1-c1ccnc(NC(=O)c2nnc(CC3CCC3)[nH]2)c1` [Example 172, 5-(cyclobutylmethyl)-N-(4-(5-((4-hydroxy-4-methylpentyl)oxy)-2-methylphenyl)pyridin-2-yl)-4H-1,2,4-triazole-3-carboxamide] had an IC50 of at most 100 nM.

`CC(C)(O)CCCOc1ccc(Cl)c(-c2ccnc(NC(=O)c3nnc(Cc4ccc(F)c(Cl)c4)[nH]3)c2)c1` [Example 342, 5-(3-chloro-4-fluorobenzyl)-N-(4-(2-chloro-5-((4-hydroxy-4-methylpentyl)oxy)phenyl)pyridin-2-yl)-4H-1,2,4-triazole-3-carboxamide] yielded an IC50 of 100 to 1000 nM.

Consider `COCCCOc1ccc(C(F)(F)F)c(-c2ccnc(NC(=O)c3nnc(CC4CCCCC4)[nH]3)c2)c1` [Example 298, 5-(cyclohexylmethyl)-N-(4-(5-(3-methoxypropoxy)-2-(trifluoromethyl)phenyl)pyridin-2-yl)-4H-1,2,4-triazole-3-carboxamide], for which the 50% inhibitory concentration (IC50) was at most 100 nM.

Compound `Cc1ccc(OCC2CCOCC2)cc1-c1cc(NC(=O)c2nnc(CC3CCCCC3)[nH]2)ncc1F` [Example 497, 5-(cyclohexylmethyl)-N-(5-fluoro-4-(2-methyl-5-((tetrahydro-2H-pyran-4-yl)methoxy)phenyl)pyridin-2-yl)-4H-1,2,4-triazole-3-carboxamide] yielded an IC50 of at most 100 nM.

Regarding `CC(C)(C)OCCOc1ccc(C#N)c(-c2ccnc(NC(=O)c3nnc(Cc4ccccc4)[nH]3)c2)c1` [Example 74], the IC50 was in the range of 100 to 1000 nM.

In turn, `CC(C)(O)CCCOc1ccc(Cl)c(-c2ccnc(NC(=O)c3nnc(Cc4ccccc4)[nH]3)c2)c1` [Example 337, 5-benzyl-N-(4-(5-((4-hydroxy-4-methylpentyl)oxy)-2-chlorophenyl)pyridin-2-yl)-4H-1,2,4-triazole-3-carboxamide] registered a concentration for half-maximal inhibition (IC50) of at most 100 nM.

Compound `COc1cc(Cc2nnc(C(=O)Nc3cc(-c4cc(OCCCC(C)(C)O)ccc4Cl)ccn3)[nH]2)ccc1F` [Example 343, N-(4-(2-chloro-5-((4-hydroxy-4-methylpentyl)oxy)phenyl)pyridin-2-yl)-5-(4-fluoro-3-methoxybenzyl)-4H-1,2,4-triazole-3-carboxamide] came in with an IC50 of 1000 to 10000 nM.

On to `CCC(O)(CC)CCCOc1ccc(C(F)(F)F)c(-c2ccnc(NC(=O)c3nnc(Cc4ccccc4)[nH]3)c2)c1` [Example 260, 5-benzyl-N-(4-(5-((4-ethyl-4-hydroxyhexyl)oxy)-2-(trifluoromethyl)phenyl)pyridin-2-yl)-4H-1,2,4-triazole-3-carboxamide], for which the IC50 was at most 100 nM.

Compound `Cc1ccc(OCC2(O)CC2)cc1-c1ccnc(NC(=O)c2nnc(Cc3ccccc3)[nH]2)c1` [Example 159, 5-benzyl-N-(4-(5-((1-hydroxycyclopropyl)methoxy)-2-methylphenyl)pyridin-2-yl)-4H-1,2,4-triazole-3-carboxamide] gave an IC50 of at most 100 nM.

For the compound `CCC(O)(CC)CCCOc1ccc(Cl)c(-c2ccnc(NC(=O)c3nnc(CC4CCCC4)[nH]3)c2)c1` [Example 361, N-(4-(2-chloro-5-((4-ethyl-4-hydroxyhexyl)oxy)phenyl)pyridin-2-yl)-5-(cyclopentylmethyl)-4H-1,2,4-triazole-3-carboxamide], the IC50 is at most 100 nM.

In turn, `Cc1ccc(C(=O)CC2CCOCC2)cc1-c1ccnc(NC(=O)c2nnc(Cc3ccccc3)[nH]2)c1` [Example 485, 5-benzyl-N-(4-(2-methyl-5-(2-(tetrahydro-2H-pyran-4-yl)acetyl)phenyl)pyridin-2-yl)-4H-1,2,4-triazole-3-carboxamide] gave an IC50 of 100 to 1000 nM.

In turn, `COCCCOc1ccc(C)c(-c2ccnc(NC(=O)c3nnc(C(C)c4ccccc4)[nH]3)c2)c1` (stereo not shown) [Example 142, N-(4-(5-(3-methoxypropoxy)-2-methylphenyl)pyridin-2-yl)-5-(1-phenylethyl)-4H-1,2,4-triazole-3-carboxamide] had an IC50 of 100 to 1000 nM.

In turn, `CC(C)(O)CCCOc1ccc(C(F)(F)F)c(-c2cc(NC(=O)c3nnc(Cc4ccccc4F)[nH]3)ncn2)c1` [Example 451, 5-(2-fluorobenzyl)-N-(6-(5-((4-hydroxy-4-methylpentyl)oxy)-2-(trifluoromethyl)phenyl)pyrimidin-4-yl)-4H-1,2,4-triazole-3-carboxamide] displayed an IC50 of at most 100 nM.

`Cc1ccc(OCCCCC(C)(C)O)cc1-c1cc(NC(=O)c2nnc(Cc3ccccc3F)[nH]2)ncc1F` [Example 494, N-(5-fluoro-4-(5-((5-hydroxyl-5-methylhexyl)oxy)-2-methylphenyl)pyridin-2-yl)-5-(2-fluorobenzyl)-4H-1,2,4-triazole-3-carboxamide] had an IC50 of at most 100 nM.

The compound `Cc1cc(F)c(OCCCC(C)(C)O)cc1-c1ccnc(NC(=O)c2nnc(Cc3ccccc3)[nH]2)c1` [Example 237, 5-benzyl-N-(4-(4-fluoro-5-((4-hydroxy-4-methylpentyl)oxy)-2-methylphenyl)pyridin-2-yl)-4H-1,2,4-triazole-3-carboxamide] yielded an IC50 of at most 100 nM.
